Patent publication US20160045463A1, “USE OF METALLOPROTEASE INHIBITORS IN THE TREATMENT OF POLYCYSTIC LIVER DISEASES” (UNIVERSIDAD DE SALAMANCA, priority 2012, published 2016)

What was measured:
Assay type in all cases: cell-based
[1] = test system: normal human cholangiocytes; test: Metalloproteolytic activity of culture supernatants, ES001 fluorogenic peptide cleavage; conditions: normal cholangiocytes vs basal; Table 3 final concentration: IL-6, IL-8 50 ng/ml; 17β-estradiol 1 nM/ml; VEGF, EGF, ENA-78, GRO-α 10 ng/ml; HGF 20 ng/ml; FIG. 9
Procedure: (§1) Metalloproteolytic or metalloprotease activity was measured in supernatants of cultures of normal human cholangiocytes and polycystic human cholangiocytes by an assay based on the cleavage of the ES001 fluorogenic synthetic peptide (R&D Systems Minneapolis, Minn., USA) that emits fluorescence proportional to metalloproteolytic activity. The substrate Mca-Pro-Leu-Gly-Leu-Dpa-Ala-Arg-NH2 [Mca: (7-Methoxycoumarin-4-yl)acetyl, Dpa: N-3-(2,4-Dinitrophenyl)-L-2,3-diaminopropionyl] (Knight C G, et al. FEBS Letters 1992; 296:263) is lysed between glycine and leucine by the action of the MMPs, especially MMP-1 (collagenase 1), MMP-2 (gelatinase A), MMP-7 (matrilysin), MMP-8 (collagenase 2), MMP-9 (gelatinase B), MMP-12 (macrophage elastase), MMP-13 (collagenase 3), MMP-14 (MT1-MMP), MMP-15 (MT2-MMP) and MMP-16 (MT3-MMP).
(§2) The basal metalloproteolytic activity of normal human cholangiocyte and polycystic human cholangiocytes cultures was determined by trypsinising the contents of 250 ml flasks and counting the number of cells in an inverted optical microscope using a Neubauer camera and a ½ dilution of the cell solution with trypan blue (Sigma). Next, 300,000 cells were seeded in each well of a 6-well plate and incubated with enriched DMEM/F-12 medium for 24 hours. After this time, the cells were washed with PBS and the culture medium changed for 2 ml of quiescent medium (DMEM/F-12, 1% FBS and 1% P/S) and incubated for 6 hours at 37° C./5% CO2. The supernatant was collected from each well and centrifuged at 4° C. for 10 minutes at 1,500 rpm to remove the dead cells present in the supernatant. The supernatant was concentrated 50 times using a 15 kDa (Millipore) Amicon Ultra concentrator. Next the concentrated supernatant was incubated for 2 hours at 37° C. with the ES001 fluorogenic peptide at a final concentration of 10 μM. Also, GM6001 (a global MMP inhibitor) and aprotinin (a global inhibitor of serine proteases) (both from Sigma-Aldrich) were used as controls of the specificity of the analysis of MMP activity in the assay. Recombinant MMP-10 (kindly provided by Dr. José Antonio Rodriguez Garcia, Laboratorio de Ateroesclerosis e Inflamación del CIMA, Universidad de Navarra) was used as a positive control and DMEM/F-12 medium without serum was used as the negative control. The fluorescence determination was kinetically measured in a Spectra MAX GeminiXS (Molecular Devices Sunnyvale, Calif., USA) spectrophotometer at excitation-emission wavelengths of 320-405 nm. The fluorescence intensity emitted by the culture medium was extracted from the metalloproteolytic activity values. The metalloproteolytic activity was calculated from the tangent to the curve of the fluorescence values using at least six different points over time for each type of cell and condition.
(§3) To analyse the effect of various stimuli on the metalloproteolytic activity of normal and polycystic human cholangiocytes cultures, a protocol similar to that described before in Example 2 was followed, but in this case the incubation of the cells was with quiescent medium (i.e. DMEM/F12, […]) in the presence of the corresponding stimulus (Table 3). Next, the same procedure as described for the analysis of basal metalloproteolytic activity was followed as described in Example 2.
(§4) Taking into account that: i) basal activity of polycystic human cholangiocytes in culture is greater than that of normal human cholangiocytes and ii) that IL-6 and IL-8 increased the metalloproteolytic activity of normal and polycystic human cholangiocytes, the role of these two cytokines on metalloproteolytic hyperactivity of polycystic human cholangiocytes using antibodies against the receptors of IL-6 (IL6R) and/or IL-8 (CXCR1) was investigated. […]

[2] = test system: polycystic human cholangiocytes; test: as above; conditions: polycystic cholangiocytes vs basal; Table 3 final concentration: IL-6, IL-8 50 ng/ml; 17β-estradiol 1 nM/ml; VEGF, EGF, ENA-78, GRO-α 10 ng/ml; HGF 20 ng/ml; FIG. 9
Procedure: as §1, §2, §3, §4

[3] = test system: normal human cholangiocytes; test: MMP mRNA expression by quantitative PCR in the presence of IL-6, IL-8 or 17β-estradiol; conditions: for expression of MMP-2 (mRNA): FIG. 10; for expression of MMP-3 (mRNA): FIG. 11; for expression of MMP-7 (mRNA): FIG. 12; for expression of MMP-10 (mRNA): FIG. 13; for expression of MMP-11 (mRNA): FIG. 14; for expression of MMP-13 (mRNA): FIG. 15; for expression of MMP-15 (mRNA): FIG. 16; for expression of MMP-17 (mRNA): FIG. 17; for expression of MMP-27 (mRNA): FIG. 18
Procedure: (§5) To determine if the metalloproteolytic hyperactivity of polycystic human cholangiocytes is associated with changes in the pattern of expression of MMPs and their natural inhibitors, TIMPs, at the level of mRNA, this was analysed by quantitative PCR (i.e. qPCR) using the cDNA previously obtained as explained in Example 1, the gene expression of a total of 22 genes, including those containing the members of the metalloprotease family: MMP-1, MMP-2, MMP-3, MMP-7, MMP-8, MMP-9, MMP-10, MMP-11, MMP-13, MMP-14, MMP-15, MMP-16, MMP-17, MMP-18, MMP-24, MMP-25, MMP-26, MMP-27 and their natural inhibitors: TIMP-1, TIMP-2, TIMP-3, TIMP-4. Briefly, 4 μl of the cDNA were taken and 1.8 μl of a 10 μM solution of each primer (final concentration 0.9 μM) and 10 μl of FastSYBR® Green (Applied Biosystems) were added, adding sterile water (Braun) to reach a final volume of 20 μl. The amplification reactions were performed in a StepOne Plus (Applied Biosystems) thermo cycler following the standard protocol conditions for FastSYBR Green®.
(§6) The relative estimate of the mRNA levels of the genes of Table 2 were calculated from the PCR progression curve (fluorescence vs. cycle), where the cycle threshold or Ct was determined from when the fluorescence signal begins to increase exponentially. Thus to calculate the difference of relative expression of the normal and polycystic human cholangiocytes, the data obtained were analysed following the modified method of Livak and Schmittgen (Livak K J, et al. Methods 2001; 25:402), according to the following equation:
(§7) Relative values=1.8^(polycystic or normal cholangiocyte GAPDH−polycystic or normal cholangiocyte GEN)
(§8) Where the superscripts “GAPDH polycystic or normal cholangiocytes” and “Gene polycystic or normal cholangiocytes” correspond to the Ct for GAPDH and for each studied gene. The value of 1.8 (in place of 2) was used because it is assumed that the real efficiency of each amplification cycle is around 80% instead of 100%.
as §3
(§9) Taking into account the increase in metalloproteolytic activity induced by interleukins 6 and 8 and also the oestrogen 17β-estradiol in human cholangiocytes in culture, this was further investigated to determine if the increase in activity was correlated with an increase in gene expression at the level of mRNA of the various MMPs.

[4] = test system: polycystic human cholangiocytes; test: as above; conditions: for expression of MMP-2 (mRNA): FIG. 10; for expression of MMP-3 (mRNA): FIG. 11; for expression of MMP-7 (mRNA): FIG. 12; for expression of MMP-10 (mRNA): FIG. 13; for expression of MMP-11 (mRNA): FIG. 14; for expression of MMP-13 (mRNA): FIG. 15; for expression of MMP-15 (mRNA): FIG. 16; for expression of MMP-17 (mRNA): FIG. 17; for expression of MMP-27 (mRNA): FIG. 18
Procedure: as §5, §6, §7, §8, §3, §9

| Substance | metalloproteolytic activity in presence of stimulus [1] | metalloproteolytic activity in presence of stimulus [2] | expression of the other metalloproteinases 1, 8, 9, 14, 16, 18, 24 and 26 [3] | expression of MMP-2 (mRNA) [3] | expression of MMP-3 (mRNA) [3] | expression of MMP-7 (mRNA) [3] | expression of MMP-10 (mRNA) [3] | expression of MMP-11 (mRNA) [3] | expression of MMP-13 (mRNA) [3] | expression of MMP-15 (mRNA) [3] | expression of MMP-17 (mRNA) [3] | expression of MMP-27 (mRNA) [3] | expression of the other metalloproteinases 1, 8, 9, 14, 16, 18, 24 and 26 [4] | expression of MMP-2 (mRNA) [4] | expression of MMP-3 (mRNA) [4] | expression of MMP-7 (mRNA) [4] | expression of MMP-10 (mRNA) [4] | expression of MMP-11 (mRNA) [4] | expression of MMP-13 (mRNA) [4] | expression of MMP-15 (mRNA) [4] | also measured |
| --- | --- | --- | --- | --- | --- | --- | --- | --- | --- | --- | --- | --- | --- | --- | --- | --- | --- | --- | --- | --- | --- |
| ENA-78: epithelial neutrophil-activating peptide 78 | did not induce any change | did not induce any change |  |  |  |  |  |  |  |  |  |  |  |  |  |  |  |  |  |  |  |
| GROα: growth-regulated oncogene a | did not induce any change | did not induce any change |  |  |  |  |  |  |  |  |  |  |  |  |  |  |  |  |  |  |  |
| HGF: hepatocyte growth factor | did not induce any change | did not induce any change |  |  |  |  |  |  |  |  |  |  |  |  |  |  |  |  |  |  |  |
| IL-6: cytokine interleukin 6, present in the cystic fluid | increase | increase | did not show changes | none of these modules induced changes | unchanged | None of the 3 molecules caused changes | unchanged | did not change | did not cause changes | did not change | did not change | did not change | did not show changes | increased | increased | increased | none of the 3 molecules caused changes | increased | did not cause changes | increased | expression of MMP-17 (mRNA) [4]: increased; expression of MMP-27 (mRNA) [4]: increased |
| IL-8: cytokine interleukin 8, present in the cystic fluid | increase | increase | did not show changes | none of these modules induced changes | unchanged | None of the 3 molecules caused changes | increased | increased | increased | did not change | did not change | did not change | did not show changes | not changed | unchanged | unchanged | none of the 3 molecules caused changes | increased | did not change | not altered | expression of MMP-17 (mRNA) [4]: increased; expression of MMP-27 (mRNA) [4]: unchanged |
| VEGF | did not induce any change | did not induce any change |  |  |  |  |  |  |  |  |  |  |  |  |  |  |  |  |  |  |  |
